“And” between values parts separate entries of the source, which are not always exact repeats. Equal entries are not always repeated. Structures can show the parent of a compound that is named as a salt. Where two headings read alike, the source gives them in different places.
Assays:
5-HT2A receptors [1] = biological target: 5-HT2A receptors (Homo sapiens, UniProt P28223); test: In vitro receptor binding studies
al-adrenergic receptors = test: In vitro receptor binding studies
sigma2 receptors [2] = biological target: sigma2 receptors (Homo sapiens, UniProt Q5BJF2); test: In vitro receptor binding studies
DA receptors = test: In vitro receptor binding studies; conditions: read-out: IC50 (affinity for DA receptors)
5-HT2A receptors [3] = test: In vivo functional tests
Excerpt: (§1) In in vivo functional tests, Compound (I) acted as an antagonist at sigma2 and 5-HT2A receptors.

sigma2 receptors [4] = test: In vivo functional tests
Excerpt: as §1

[5] = test system: dopamine turnover, DA metabolites DOPAC and HVA; test: Dopamine turnover and DA metabolite output after oral administration; format: in vivo
Excerpt: as §1

[6] = test system: methamphetamine-induced hyperlocomotion; test: Methamphetamine-induced hyperlocomotion; format: in vivo, male Wistar rats; conditions: for methamphetamine-induced hyperlocomotion: male Wistar rats
Description: (§2) Compound (I) was tested in male Wistar rats in several behavioral paradigms designed to evaluate the potential for producing antipsychotic activity of drugs in humans. Compound (I) inhibited methamphetamine-, apomorphine-, and phencyclidine-induced hyperlocomotion in a similar manner to other antipsychotics.

[7] = test system: apomorphine-induced hyperlocomotion; test: Apomorphine-induced hyperlocomotion; format: in vivo; conditions: male Wistar rats
Description: as §2

[8] = test system: phencyclidine-induced hyperlocomotion; test: Phencyclidine-induced hyperlocomotion; format: in vivo; conditions: male Wistar rats
Description: as §2

[9] = test system: PCP-induced social interaction impairment; test: PCP-induced social interaction impairment; format: in vivo, male Wistar rats; conditions: after repeated administration
[10] = test system: spontaneous alternation behavior impairment induced by MK-801; test: Impairment of spontaneous alternation behavior induced by MK-801; set-up: species or system male Wistar rats; conditions: rat, in vivo
rats = test: Safety pharmacology studies (general activity and behavior, CNS, respiratory, gastrointestinal, water and electrolyte excretion); format: in vivo
Description: In a series of safety pharmacology studies, the effects of Compound (I) on general activity and behavior, the CNS, respiratory function, gastrointestinal system, and water and electrolyte excretion were examined in rats at an oral dose range of 1 to 30 mg/kg Compound (I) induced various changes in general activity and behavior. These clinical signs were observed between 0.25 to 4 hours post-dosing and disappeared by 6 hours post-dosing. Compound (I) inhibited CNS function and decreased thresholds for electroshock-induced convulsion.

IKr current = IKr current (Homo sapiens, UniProt Q12809); test: In vitro electrophysiology, cultured cells expressing cloned cardiac ion channels
Excerpt: (§3) The effects of Compound (I) on the cardiovascular system were examined in in vitro and in vivo studies.

in vivo [11] = test: in vivo; set-up: species or system rats; conditions: rat
Description: (§4) Pharmacokinetic (PK) studies of Compound (I) have been performed particularly in rats and monkeys. Following a single oral administration, Compound (I) was rapidly absorbed. Plasma radioactivity peaked between 0.63 and 2.75 hours in male rats, and between 3 and 3.5 hours in male monkeys. […] The elimination half-lives of radioactivity from plasma were 45.13 to 51.52 hours in rats and 174.74 to 184.78 hours in monkeys. The elimination half-lives of unchanged Compound (I) were 1.68 to 2.06 hours in rats, and 1.68 to 2.57 hours in monkeys.
Food and gender effects were also assessed in rats.
(§5) The major route of elimination of radioactivity in rats and monkeys following a single oral or intravenous administration was via the feces. The excretion to bile was 44.2% within 48 hours after a single oral administration to bile duct cannulated rats. Urinary excretion rates of radioactivity were about 35% in rats and monkeys. […] The enterohepatic circulation rate was determined to be about 27% after intraduodenal administration of bile samples from ^14C-Compound (I)-treated rats.

in vivo [12] = test: in vivo; set-up: species or system monkeys; conditions: monkey
Description: as §4
(§6) After single administration of BFB-520 in monkeys, exposure levels of BFB-520, Compound (I) and BFB-999 increased with a dose increment larger than the proportionate one. […] Finally, the brain transfer of Compound (I) was studied with male rats after oral administration (10 mg/kg). […] The Kp value (brain/plasma concentration ratio) was 1.38 mL/g.
as §5

in vivo [13] = test: in vivo; set-up: species or system male rats; conditions: rat, po, 10 mg/kg
Description: as §6

[14] = test system: human P450 isoforms (CYP1A2, 2A6, 2B6, 2C8/9, 2C19, 2E1 and 3A4); test: Inhibition of human P450 isoforms; format: in vitro ADME
CYP2D6 = CYP2D6 (Homo sapiens, UniProt P10635); test: Inhibition of human P450 isoforms; format: in vitro ADME
[15] = Part 1 single dose MR formulation pharmacokinetic study in healthy CYP2D6 EM male subjects; format: in vivo, human; set-up: Cmax increase, food effect: unit not given beside the values; conditions: for AUC(0-t) / Cmax / half-life: plasma
Excerpt: Part 1 of this study was designed to characterize and compare the pharmacokinetic (PK) profile of Compound (I) when administered as MR formulations, and food effects, following a single dose administration in a 6-way, within subject, crossover design.
Part 1 of the study is an open-label, non-randomized, single dose, 6-period crossover design in 12 healthy CYP 2D6 EM male subjects. For Part 1, subjects will receive the following regimens in a non-randomised manner:
Regimen A: MR Formulation prototype 1: 32 mg Compound (I) slow release administered in the fasted state
A Two-Part Study Designed to Evaluate the Pharmacokinetic Profile of Compound (I) and its Main Metabolites Following Single and Multiple Dose Modified Release Prototype Formulation Administration in Healthy CYP2D6 Extensive Metabolizer Male and Female Subjects, and to Evaluate the Relationship Between the Pharmacokinetic Profile of Compound (I) and its Main Metabolites and Cardiovascular Parameters.

QT/QTc interval = test: Analysis of relationship between QT/QTc and plasma concentrations; format: in vivo, human
Description: Increases in QTc interval were observed and seemed to be related to the exposure to Compound (I) and its metabolite BFB-520. […] A further analysis of the relationship between QT/QTc and Compound (I) and BFB-520 concentrations was performed.

sleep architecture = test: CYR-101C01 Phase 2a study, sleep recordings (PSG) and PSQI; format: in vivo, human
[16] = test system: human liver microsomes, cytochromes P450
[17] = test system: guinea pig papillary muscle
Excerpt: as §3

Sequence of 5-HT2A receptors (Homo sapiens, UniProt P28223) (P28223 whole entry): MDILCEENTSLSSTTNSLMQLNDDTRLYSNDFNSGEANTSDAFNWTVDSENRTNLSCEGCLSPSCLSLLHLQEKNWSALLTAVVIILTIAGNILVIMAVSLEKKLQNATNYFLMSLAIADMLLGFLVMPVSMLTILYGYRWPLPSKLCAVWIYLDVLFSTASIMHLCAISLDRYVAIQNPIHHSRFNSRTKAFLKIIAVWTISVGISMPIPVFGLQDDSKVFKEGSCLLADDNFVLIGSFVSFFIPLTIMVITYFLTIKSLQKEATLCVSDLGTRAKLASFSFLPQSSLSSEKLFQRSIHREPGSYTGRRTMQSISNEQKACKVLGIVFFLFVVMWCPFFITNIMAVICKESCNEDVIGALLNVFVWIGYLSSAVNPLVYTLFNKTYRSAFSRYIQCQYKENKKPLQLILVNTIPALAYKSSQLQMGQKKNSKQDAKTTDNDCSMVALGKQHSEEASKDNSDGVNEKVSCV
Sequence of IKr current (Q12809 whole entry): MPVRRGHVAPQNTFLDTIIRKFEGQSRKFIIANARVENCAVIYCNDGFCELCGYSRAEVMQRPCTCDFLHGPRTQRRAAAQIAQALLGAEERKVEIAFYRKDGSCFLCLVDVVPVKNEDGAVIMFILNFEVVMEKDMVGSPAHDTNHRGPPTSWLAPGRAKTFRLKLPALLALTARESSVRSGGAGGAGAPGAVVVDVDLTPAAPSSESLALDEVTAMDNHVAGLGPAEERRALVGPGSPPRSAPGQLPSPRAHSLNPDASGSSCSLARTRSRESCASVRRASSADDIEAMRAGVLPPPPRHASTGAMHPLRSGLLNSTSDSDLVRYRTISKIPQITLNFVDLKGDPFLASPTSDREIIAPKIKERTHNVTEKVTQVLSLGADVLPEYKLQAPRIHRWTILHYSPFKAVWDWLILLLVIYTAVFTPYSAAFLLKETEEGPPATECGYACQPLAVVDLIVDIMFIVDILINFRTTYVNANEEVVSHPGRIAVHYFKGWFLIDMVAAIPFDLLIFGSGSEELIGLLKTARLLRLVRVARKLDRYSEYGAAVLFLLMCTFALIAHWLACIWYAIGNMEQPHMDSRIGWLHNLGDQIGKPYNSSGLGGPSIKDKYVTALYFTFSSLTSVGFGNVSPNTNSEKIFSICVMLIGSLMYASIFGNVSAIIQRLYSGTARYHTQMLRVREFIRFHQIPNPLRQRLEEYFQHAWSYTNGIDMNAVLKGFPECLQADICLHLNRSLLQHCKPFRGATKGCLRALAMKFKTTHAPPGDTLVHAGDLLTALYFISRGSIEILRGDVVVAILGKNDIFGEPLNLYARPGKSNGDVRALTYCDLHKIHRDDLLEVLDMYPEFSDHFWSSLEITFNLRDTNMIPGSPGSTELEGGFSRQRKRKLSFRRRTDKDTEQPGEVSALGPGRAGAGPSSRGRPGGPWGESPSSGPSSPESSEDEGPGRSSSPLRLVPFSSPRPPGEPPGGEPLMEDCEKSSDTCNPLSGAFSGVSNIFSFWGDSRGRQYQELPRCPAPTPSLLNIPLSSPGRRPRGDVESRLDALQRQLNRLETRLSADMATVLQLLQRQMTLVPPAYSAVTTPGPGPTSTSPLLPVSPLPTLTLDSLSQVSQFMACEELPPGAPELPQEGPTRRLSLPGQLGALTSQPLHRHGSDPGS
Sequence of sigma2 receptors (Homo sapiens, UniProt Q5BJF2) (Q5BJF2 whole entry): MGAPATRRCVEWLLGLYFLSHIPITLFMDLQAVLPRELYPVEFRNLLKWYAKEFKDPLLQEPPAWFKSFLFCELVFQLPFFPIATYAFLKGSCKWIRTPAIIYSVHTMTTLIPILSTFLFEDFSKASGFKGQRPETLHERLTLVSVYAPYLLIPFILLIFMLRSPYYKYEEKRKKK
Sequence of CYP2D6 (P10635 whole entry, canonical isoform): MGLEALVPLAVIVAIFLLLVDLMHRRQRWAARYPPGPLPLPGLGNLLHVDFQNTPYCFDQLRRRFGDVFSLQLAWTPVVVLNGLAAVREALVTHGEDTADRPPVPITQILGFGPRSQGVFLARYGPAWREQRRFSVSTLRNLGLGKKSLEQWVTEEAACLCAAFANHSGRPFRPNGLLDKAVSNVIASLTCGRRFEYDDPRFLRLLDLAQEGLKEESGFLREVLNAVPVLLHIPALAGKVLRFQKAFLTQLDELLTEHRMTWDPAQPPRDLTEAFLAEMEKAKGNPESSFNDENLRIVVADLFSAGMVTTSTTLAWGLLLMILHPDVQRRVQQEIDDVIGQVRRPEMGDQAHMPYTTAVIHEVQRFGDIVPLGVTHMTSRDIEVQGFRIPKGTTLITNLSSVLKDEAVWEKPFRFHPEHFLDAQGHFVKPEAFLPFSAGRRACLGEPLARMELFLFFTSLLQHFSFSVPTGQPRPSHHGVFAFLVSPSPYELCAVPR

O=C(CN1CCC(CN2Cc3ccccc3C2=O)CC1)c1ccc(F)cc1 [Compound (I), 2-((1-(2-(4-Fluorophenyl)-2-oxoethyl)piperidin-4-yl)methyl)isoindolin-1-one monohydrochloride dihydrate]
Ki (5-HT2A receptors [1]; 5-HT2A receptor): 7.53 nM
Ki (al-adrenergic receptors): 14.4 nM
Ki (sigma2 receptors [2]; sigma2 receptor): 8.19 nM
IC50 (DA receptors): > 1000 nM
functional activity at 5-HT2A receptors (5-HT2A receptors [3]): antagonist
functional activity at sigma2 receptors (sigma2 receptors [4]): antagonist
monoamine levels ([5]; effective dose levels in animal models of antipsychotic activity): did not affect
dopamine turnover in the accumbens and striatum ([5]; oral administration): slightly increased
output of DA metabolites such as DOPAC and HVA in prefrontal cortex ([5]; oral, high dose levels): increased the output
methamphetamine-induced hyperlocomotion [6]: inhibited
apomorphine-induced hyperlocomotion [7]: inhibited
phencyclidine-induced hyperlocomotion [8]: inhibited
PCP-induced social interaction impairment [9]: significantly ameliorated
impairment of spontaneous alternation behavior induced by MK-801 [10]: improved
CNS function (rats; oral 1 to 30 mg/kg): inhibited
thresholds for electroshock-induced convulsion (rats; oral 1 to 30 mg/kg): decreased
time by which clinical signs disappeared post-dosing (rats; oral 1 to 30 mg/kg): ≤ 6 h
effects at high doses (rats; oral, high doses (>10 mg/kg)): affected respiratory function, inhibited gastric emptying, damaged the gastrointestinal membrane, decreased urine volume, and increased urine potassium excretion
IC50 (IKr current): 325 nM
recovery of given radioactivity in carcass (in vivo [11]; male, 168 h): 0.7%
time of peak plasma radioactivity (in vivo [11]; male, po): 0.63 to 2.75 h
enterohepatic circulation rate (in vivo [11]): about 27%
pharmacokinetic parameters for total radioactivity, female vs male rats (in vivo [11]): comparable
urinary excretion rate of radioactivity (in vivo [11]): about 35%
bioavailability (in vivo [11]; po): 52.4 to 64.5%
half-life (in vivo [11]; po): 1.68 to 2.06 h
oral absorption rate (in vivo [11]; po): 90.3-94.7%
transfer into milk (in vivo [11]; po): rapidly transferred into milk and were slowly eliminated
time of peak plasma radioactivity (in vivo [12]; male, po): 3 to 3.5 h
urinary excretion rate of radioactivity (in vivo [12]): about 35%
bioavailability (in vivo [12]; po): ≥ 90%
half-life (in vivo [12]; po): 1.68 to 2.57 h
oral absorption rate (in vivo [12]; po): 70.0-99.9%
Cmax (in vivo [13]; male): 3160 ng/mL and 4950 ng/g
Kp value (brain/plasma concentration ratio) (in vivo [13]): 1.38 mL/g
inhibitory effects on human P450 isoforms (CYP1A2, 2A6, 2B6, 2C8/9, 2C19, 2E1 and 3A4) [14]: No remarkable inhibitory effects
inhibitory effect on CYP2D6 (CYP2D6): weak inhibitory effect
dose proportionality of PK ([15]; MR formulation under fasted conditions): generally dose proportional
Cmax increase, food effect ([15]; MR formulation, fed vs fasted): ~2 ×
Half-life Fed to Fasted ratio ([15]; MR formulation, fed vs fasted): 0.5
Tiag, Median ([15]; Period 1, 32 mg Slow Release, Fasted, plasma analyte): 0 h
Tmax ([15]; male, human, oral, Period 1, 32 mg Slow Release, Fasted, plasma analyte, read-out: Tmax, Median): 2.25 h
AUC(0-t) ([15]; male, human, oral, 32 mg, Period 1, 32 mg Slow Release, Fasted, plasma analyte, read-out: AUClast, Mean): 212 ng·h/mL
AUC(0-t) ([15]; male, human, oral, 32 mg, Period 1, 32 mg Slow Release, Fasted, plasma analyte, read-out: AUClast, Median): 220 ng·h/mL
Cmax ([15]; male, human, oral, 32 mg, Period 1, 32 mg Slow Release, Fasted, plasma analyte, read-out: Cmax, Mean): 22.5 ng/mL
Cmax ([15]; male, human, oral, 32 mg, Period 1, 32 mg Slow Release, Fasted, plasma analyte, read-out: Cmax, Median): 23.7 ng/mL
half-life ([15]; male, human, oral, 32 mg, Period 1, 32 mg Slow Release, Fasted, plasma analyte, read-out: t½, Mean (converted)): 6.26 h
half-life ([15]; male, human, oral, 32 mg, Period 1, 32 mg Slow Release, Fasted, plasma analyte, read-out: t½, Median (converted)): 5.35 h
half-life ([15]; male, human, oral, MR formulation under fasted conditions, read-out: Half-life): 3 to 8 h
Cmax (QT/QTc interval; human plasma, read-out: Cmax that should not be exceeded to avoid QT prolongation): ≤ 80 ng/mL
sleep initiation parameters (sleep onset latency, latency to persistent sleep) (sleep architecture; patients): improved
slow wave sleep (SWS) in the first third of the night (sleep architecture; patients, PSG): significantly increased
slow wave sleep (SWS) in the last third of the night (sleep architecture; patients, PSG): decreased
subjective sleep quality as measured by PSQI (sleep architecture; vs placebo): improvement was greater with Compound (I) than with placebo although not statistically significant
metabolizing enzymes [16]: mainly metabolized by enzymatic reaction other than CYP isoforms

O=C1c2ccccc2CN1CC1CCN(CC(O)c2ccc(F)cc2)CC1 (stereo not drawn) [BFB-520]
affinity for 5-HT2A receptors compared with Compound (I) (5-HT2A receptors [1]): lower
affinity for σ2 receptors compared with Compound (I) (sigma2 receptors [2]): lower affinity
methamphetamine-induced hyperlocomotion [6]: inhibited
ED50 compared with Compound (I) ([6]; methamphetamine-induced hyperlocomotion): higher than that of Compound (I)
concentration that prolonged the action potential duration (APD) [17]: ≥ 100 nM
IC50 (IKr current): 181 nM
time to maximum concentration post-dosing (in vivo [12]): ≤ 4 h
Half-life Fed to Fasted ratio ([15]; human, in vivo): 0.8
dose proportionality of PK ([15]; human, in vivo): less so
Cmax that should not be exceeded to avoid QT prolongation (QT/QTc interval; human, in vivo): ≤ 12 ng/mL
metabolizing enzymes [16]: metabolized by CYP2D6 and CYP3A4

— patent US10258614B2, “Compositions and methods for treating schizophrenia” (priority 2014, dated 2019)
